Experimental data as given in article PMC8364686, “Safety, tolerability, pharmacokinetics and pharmacodynamics of single oral doses of BI 187004, an inhibitor of 11beta-hydroxysteroid dehydrogenase-1, in healthy male volunteers with overweight or obesity” (Clinical Diabetes and Endocrinology, 2021).

Assay: Plasma pharmacokinetics of BI 187004 after single oral doses (LC–MS/MS)
Details: male, human, plasma, po; for concentration at 10 h: planned time 10 h; for concentration at 12 h: planned time 12 h; for concentration at 36 h: planned time 36 h; for concentration at 48 h: planned time 48 h; for concentration at 72 h: planned time 72 h; for concentration at 96 h: planned time 96 h; for concentration at 0.5 h: planned time 0.5 h; for concentration at 1 h: planned time 1 h; for concentration at 1.5 h: planned time 1.5 h; for concentration at 2 h: planned time 2 h; for concentration at 2.5 h: planned time 2.5 h; for concentration at 3 h: planned time 3 h; for concentration at 4 h: planned time 4 h; for concentration at 5 h: planned time 5 h; for concentration at 6 h: planned time 6 h; for concentration at 8 h: planned time 8 h
[1] = 40 mg, BI 187004 plasma concentrations, 40 mg single oral, Max
[2] = 40 mg, BI 187004 plasma concentrations, 40 mg single oral, Mean
[3] = 40 mg, BI 187004 plasma concentrations, 40 mg single oral, Median
[4] = 40 mg, BI 187004 plasma concentrations, 40 mg single oral, Min
[5] = 40 mg, BI 187004 plasma concentrations, 40 mg single oral, gMean
[6] = 80 mg, BI 187004 plasma concentrations, 80 mg single oral, Max
[7] = 80 mg, BI 187004 plasma concentrations, 80 mg single oral, Mean
[8] = 80 mg, BI 187004 plasma concentrations, 80 mg single oral, Median
[9] = 80 mg, BI 187004 plasma concentrations, 80 mg single oral, Min
[10] = 80 mg, BI 187004 plasma concentrations, 80 mg single oral, gMean
[11] = 160 mg, BI 187004 plasma concentrations, 160 mg single oral, Max
[12] = 160 mg, BI 187004 plasma concentrations, 160 mg single oral, Mean
[13] = 160 mg, BI 187004 plasma concentrations, 160 mg single oral, Median
[14] = 160 mg, BI 187004 plasma concentrations, 160 mg single oral, Min
[15] = 160 mg, BI 187004 plasma concentrations, 160 mg single oral, gMean
[16] = 160 mg, BI 187004 plasma concentrations, 160 mg single oral, individual subjects

N#Cc1ccc2c(c1)[C@H]1CCCN(C(=O)c3ccc4[nH]cnc4c3)[C@H]1C2 [BI 187004]
concentration at 10 h [1]: 1140 nM
concentration at 10 h [2]: 825 nM
concentration at 10 h [3]: 815 nM
concentration at 10 h [4]: 467 nM
concentration at 10 h [5]: 796 nM
concentration at 12 h [1]: 984 nM
concentration at 12 h [2]: 683 nM
concentration at 12 h [3]: 690 nM
concentration at 12 h [4]: 359 nM
concentration at 12 h [5]: 650 nM
concentration at 24 h (40 mg, BI 187004 plasma concentrations, 40 mg single oral, planned time 24 h, Max): 625 nM
concentration at 24 h (40 mg, BI 187004 plasma concentrations, 40 mg single oral, planned time 24 h, Mean): 353 nM
concentration at 24 h (40 mg, BI 187004 plasma concentrations, 40 mg single oral, planned time 24 h, Median): 335 nM
concentration at 24 h (40 mg, BI 187004 plasma concentrations, 40 mg single oral, planned time 24 h, Min): 169 nM
concentration at 24 h (40 mg, BI 187004 plasma concentrations, 40 mg single oral, planned time 24 h, gMean): 321 nM
concentration at 36 h [1]: 377 nM
concentration at 36 h [2]: 163 nM
concentration at 36 h [3]: 119 nM
concentration at 36 h [4]: 51.5 nM
concentration at 36 h [5]: 129 nM
concentration at 48 h [1]: 234 nM
concentration at 48 h [2]: 95.6 nM
concentration at 48 h [3]: 66.2 nM
concentration at 48 h [4]: 30.8 nM
concentration at 48 h [5]: 73 nM
concentration at 72 h [1]: 83.4 nM
concentration at 72 h [2]: 32 nM
concentration at 72 h [3]: 22.1 nM
concentration at 72 h [4]: 8.48 nM
concentration at 72 h [5]: 24.3 nM
concentration at 96 h [1]: 41.4 nM
concentration at 96 h [2]: 15.5 nM
concentration at 96 h [3]: 11.1 nM
concentration at 96 h [4]: 5.05 nM
concentration at 96 h [5]: 12.2 nM
concentration at 24 h (40 mg, C24 gMean (%gCV), 40 mg single oral dose): 321 nM
AUC(0-inf) (80 mg): 51.1 µM·h
AUC(0-t) (80 mg): 43.1 µM·h
Cmax (80 mg): 2460 nM
Tmax (80 mg): 2.25 h
Vd/F (80 mg): 113 L
half-life (80 mg): 17.1 h
concentration at 0.5 h [6]: 4480 nM
concentration at 0.5 h [7]: 1780 nM
concentration at 0.5 h [8]: 1020 nM
concentration at 0.5 h [9]: 304 nM
concentration at 0.5 h [10]: 1150 nM
concentration at 1 h [6]: 4770 nM
concentration at 1 h [7]: 2490 nM
concentration at 1 h [8]: 2300 nM
concentration at 1 h [9]: 771 nM
concentration at 1 h [10]: 2120 nM
concentration at 1.5 h [6]: 4150 nM
concentration at 1.5 h [7]: 2500 nM
concentration at 1.5 h [8]: 2540 nM
concentration at 1.5 h [9]: 958 nM
concentration at 1.5 h [10]: 2220 nM
concentration at 2 h [6]: 3590 nM
concentration at 2 h [7]: 2330 nM
concentration at 2 h [8]: 2400 nM
concentration at 2 h [9]: 1000 nM
concentration at 2 h [10]: 2130 nM
concentration at 2.5 h [6]: 3200 nM
concentration at 2.5 h [7]: 2350 nM
concentration at 2.5 h [8]: 2650 nM
concentration at 2.5 h [9]: 1200 nM
concentration at 2.5 h [10]: 2200 nM
concentration at 3 h [6]: 3340 nM
concentration at 3 h [7]: 2240 nM
concentration at 3 h [8]: 2470 nM
concentration at 3 h [9]: 1050 nM
concentration at 3 h [10]: 2070 nM
concentration at 4 h [6]: 3200 nM
concentration at 4 h [7]: 2200 nM
concentration at 4 h [8]: 2460 nM
concentration at 4 h [9]: 936 nM
concentration at 4 h [10]: 2020 nM
concentration at 5 h [6]: 3210 nM
concentration at 5 h [7]: 1980 nM
concentration at 5 h [8]: 2040 nM
concentration at 5 h [9]: 905 nM
concentration at 5 h [10]: 1840 nM
concentration at 6 h [6]: 2460 nM
concentration at 6 h [7]: 1740 nM
concentration at 6 h [8]: 1870 nM
concentration at 6 h [9]: 930 nM
concentration at 6 h [10]: 1650 nM
concentration at 8 h [6]: 2840 nM
concentration at 8 h [7]: 1820 nM
concentration at 8 h [8]: 1690 nM
concentration at 8 h [9]: 1100 nM
concentration at 8 h [10]: 1740 nM
concentration at 10 h [6]: 2570 nM
concentration at 10 h [7]: 1600 nM
concentration at 10 h [8]: 1460 nM
concentration at 10 h [9]: 1040 nM
concentration at 10 h [10]: 1530 nM
concentration at 12 h [6]: 2210 nM
concentration at 12 h [7]: 1380 nM
concentration at 12 h [8]: 1210 nM
concentration at 12 h [9]: 959 nM
concentration at 12 h [10]: 1320 nM
concentration at 24 h (80 mg, BI 187004 plasma concentrations, 80 mg single oral, planned time 24 h, Max): 1560 nM
concentration at 24 h (80 mg, BI 187004 plasma concentrations, 80 mg single oral, planned time 24 h, Mean): 927 nM
concentration at 24 h (80 mg, BI 187004 plasma concentrations, 80 mg single oral, planned time 24 h, Median): 812 nM
concentration at 24 h (80 mg, BI 187004 plasma concentrations, 80 mg single oral, planned time 24 h, Min): 605 nM
concentration at 24 h (80 mg, BI 187004 plasma concentrations, 80 mg single oral, planned time 24 h, gMean): 878 nM
concentration at 36 h [6]: 678 nM
concentration at 36 h [7]: 411 nM
concentration at 36 h [8]: 372 nM
concentration at 36 h [9]: 223 nM
concentration at 36 h [10]: 383 nM
concentration at 48 h [6]: 596 nM
concentration at 48 h [7]: 281 nM
concentration at 48 h [8]: 230 nM
concentration at 48 h [9]: 134 nM
concentration at 48 h [10]: 247 nM
concentration at 72 h [6]: 234 nM
concentration at 72 h [7]: 90 nM
concentration at 72 h [8]: 65.1 nM
concentration at 72 h [9]: 46.3 nM
concentration at 72 h [10]: 74.2 nM
concentration at 96 h [6]: 110 nM
concentration at 96 h [7]: 44.9 nM
concentration at 96 h [8]: 23.8 nM
concentration at 96 h [9]: 11.9 nM
concentration at 96 h [10]: 32.3 nM
concentration at 24 h (80 mg, C24 gMean (%gCV), 80 mg single oral dose): 878 nM
AUC(0-inf) (160 mg): 111 µM·h
AUC(0-t) (160 mg): 82.1 µM·h
Cmax (160 mg): 8310 nM
Tmax (160 mg): 1 h
Vd/F (160 mg): 87.9 L
half-life (160 mg): 14.5 h
concentration at 0.5 h [11]: 8780 nM
concentration at 0.5 h [12]: 6380 nM
concentration at 0.5 h [13]: 6830 nM
concentration at 0.5 h [14]: 2520 nM
concentration at 0.5 h [15]: 5860 nM
concentration at 1 h [11]: 8740 nM
concentration at 1 h [12]: 7260 nM
concentration at 1 h [13]: 7640 nM
concentration at 1 h [14]: 3920 nM
concentration at 1 h [15]: 7040 nM
concentration at 1.5 h [11]: 8830 nM
concentration at 1.5 h [12]: 7280 nM
concentration at 1.5 h [13]: 7380 nM
concentration at 1.5 h [14]: 5190 nM
concentration at 1.5 h [15]: 7190 nM
concentration at 1.5 h [16]: 7480 nM
concentration at 2 h [11]: 8640 nM
concentration at 2 h [12]: 7070 nM
concentration at 2 h [13]: 6790 nM
concentration at 2 h [14]: 6360 nM
concentration at 2 h [15]: 7030 nM
concentration at 2 h [16]: 7230 nM
concentration at 2.5 h [11]: 8030 nM
concentration at 2.5 h [12]: 6730 nM
concentration at 2.5 h [13]: 6550 nM
concentration at 2.5 h [14]: 6070 nM
concentration at 2.5 h [15]: 6700 nM
concentration at 2.5 h [16]: 6930 nM
concentration at 3 h [11]: 7450 nM
concentration at 3 h [12]: 5950 nM
concentration at 3 h [13]: 5800 nM
concentration at 3 h [14]: 5330 nM
concentration at 3 h [15]: 5910 nM
concentration at 3 h [16]: 5470 nM
concentration at 4 h [11]: 6750 nM
concentration at 4 h [12]: 5800 nM
concentration at 4 h [13]: 5790 nM
concentration at 4 h [14]: 5060 nM
concentration at 4 h [15]: 5770 nM
concentration at 4 h [16]: 5230 nM
concentration at 5 h [11]: 5220 nM
concentration at 5 h [12]: 4870 nM
concentration at 5 h [13]: 4900 nM
concentration at 5 h [14]: 4420 nM
concentration at 5 h [15]: 4860 nM
concentration at 5 h [16]: 4420 nM
concentration at 6 h [11]: 5320 nM
concentration at 6 h [12]: 4340 nM
concentration at 6 h [13]: 4230 nM
concentration at 6 h [14]: 3430 nM
concentration at 6 h [15]: 4290 nM
concentration at 6 h [16]: 4030 nM
concentration at 8 h [11]: 4580 nM
concentration at 8 h [12]: 3720 nM
concentration at 8 h [13]: 3740 nM
concentration at 8 h [14]: 2580 nM
concentration at 8 h [15]: 3670 nM
concentration at 8 h [16]: 3650 nM
concentration at 10 h [11]: 4290 nM
concentration at 10 h [12]: 3090 nM
concentration at 10 h [13]: 3040 nM
concentration at 10 h [14]: 1940 nM
concentration at 10 h [15]: 3000 nM
concentration at 12 h [11]: 3640 nM
concentration at 12 h [12]: 2990 nM
concentration at 12 h [13]: 2910 nM
concentration at 12 h [14]: 2710 nM
concentration at 12 h [15]: 2970 nM
concentration at 12 h [16]: 2710 nM
concentration at 24 h (160 mg, BI 187004 plasma concentrations, 160 mg single oral, planned time 24 h, Max): 2690 nM
concentration at 24 h (160 mg, BI 187004 plasma concentrations, 160 mg single oral, planned time 24 h, Mean): 1680 nM
concentration at 24 h (160 mg, BI 187004 plasma concentrations, 160 mg single oral, planned time 24 h, Median): 1490 nM
concentration at 24 h (160 mg, BI 187004 plasma concentrations, 160 mg single oral, planned time 24 h, Min): 1360 nM
concentration at 24 h (160 mg, BI 187004 plasma concentrations, 160 mg single oral, planned time 24 h, gMean): 1630 nM
concentration at 24 h (160 mg, BI 187004 plasma concentrations, 160 mg single oral, planned time 24 h, individual subjects): 1360 nM
